Measured values as given in paper PMC11539218 (Antimicrobial Agents and Chemotherapy, 2024).

Key:
[1] = system: L. (L.) infantum promastigotes; test: Cell cycle (propidium iodide, flow cytometry); type: cell-based, Leishmania (L.) infantum; conditions: 24 h; compound 1 169.2 µM, miltefosine 25 µM
Protocol: Promastigotes (2 × 10^6/well) in exponential phase, were treated with compound 1 (169.2 µM) in M199 medium supplemented with 10% FBS and 0.25% hemin, pH 7.2, for 24 h at 24°C. In sequence, 70% (vol/vol) ice-cold ethanol was used for cell permeabilization overnight at −20°C. Then, the parasites were incubated with propidium iodide (10 µg/mL) and RNase A (20 µg/mL) for 30 min. […] Miltefosine (25 µM) was employed as positive control and untreated parasites as negative control ([25]).

[2] = system: Peritoneal macrophages infected with L. (L.) infantum; test: Cytokines in infected macrophages (ELISA); type: cell-based, BALB/c mice; conditions: 48 and 72 h
Protocol: L. (L.) infantum (MHOM/BR/1972/LD) promastigotes were maintained in M199 medium supplemented with 10% FBS and 0.25% hemin, pH 7.2 at 24°C. Amastigotes were isolated from golden hamsters (M. auratus) by differential centrifugation of infected spleens and the parasite’s number was determined according to Stauber ([14]). Peritoneal macrophages were obtained from the peritoneal cavity of BALB/c mice and maintained in RPMI-1640 medium supplemented with 10% FBS, pH 7.2 at 37°C.
Peritoneal macrophages (1 × 10^6/well) were infected with L. (L.) infantum […] (10:1 amastigotes/macrophage) for 24 h, at 37°C with 5% CO2. Subsequently, compound 1 (10 and 60 µM) was added and the incubation followed the same conditions described above. Cell supernatants were collected after 48 and 72 h and the cytokines (IL-4, IL-10, IL-12, and INF-γ) were measured using the BD OptEIA Mouse ELISA set kits, according to the manufacturer’s instructions. Concanavalin A (5 µg/mL) was employed as positive control and untreated cells as negative control.

[3] = Stability in plasma under handling and storage conditions (HPLC); type: in vitro ADME
Protocol: The detection and quantification of compound 1 in the blood matrices were performed after sample processing, using a liquid-liquid extraction methodology. First, 100 µL of plasma was enriched with 10 µL of PI (0.8 µg/mL). Subsequently, 500 µL of hexane was added and the mixture was vortexed for 1 min and centrifuged at 22,082 × g for 5 min. The organic phase was collected in glass tubes and the aqueous phase was subjected to the liquid-liquid extraction procedure again. In the end, the combined organic samples were completely evaporated at 60°C under nitrogen flow and reconstituted in 100 µL of 40:60 ACN:H2O + 0.1% orthophosphoric acid (pH 2.08). Finally, the extracts were centrifuged at 22,082 × g for 2 min and injected into the chromatographic system. Chromatographic analyses by HPLC were performed using a C18 column (Purospher Star LiChroCART, 55 × 4 mm, 3 µm) with gradient elution (Table 1).
Method validation was performed following the guidelines for bioanalytical methods validation of the Food and Drug Administration and European Medicines Agency ([29], [30]). Thus, the acceptance criteria set out in these guides were adopted for the parameters of selectivity, linearity, precision, accuracy, lower limit of quantification (LLOQ), and stability. Quality controls of the lower limit of quantification (QCLOQ—0.03 µg/mL), low (QC1—0.08 µg/mL), medium (QC2—2 µg/mL), and high (QC3—5 µg/mL), were also established in accordance with the guides. […] In addition, stability was established after exposure to different conditions, mimicking storage and handling throughout the experimental process (Table 2).

[4] = system: amastigotes of L. (L.) infantum; conditions: cited from earlier work
[5] = system: L. (L.) infantum promastigotes; test: Ultrastructural studies (transmission electron microscopy); type: cell-based, Leishmania (L.) infantum; conditions: 169.2 µM, TEM
Protocol: Promastigotes (3 × 10^7 parasites/well) were treated with compound 1 (169.2 µM) for 2, 4, and 6 h at 24°C. Subsequently, parasites were fixed in glutaraldehyde solution (2.5% wt/vol) and post-fixed in osmium tetroxide (1% wt/vol). The samples were gradually dehydrated in acetone and embedded in Epon 812 resin. Ultrathin sections were stained with uranyl acetate and lead citrate ([27]). The material was analyzed under a transmission electron microscope (JEOL JEM-1011). Untreated parasites were employed as a negative control.

[6] = system: Erythrocytes collected from BALB/c mice; test: Hemolytic activity; type: cell-based; conditions: 6.25 to 200 µM, 2 h
Protocol: Erythrocytes collected from BALB/c mice were added to a U-shaped bottom 96-wells microplate at 3% (vol/vol) in phosphate-buffered saline (PBS), treated with compound 1 serially diluted ([…] to 200 µM) in PBS and incubated for 2 h at 24°C. To determine the hemolytic activity, cell supernatants were collected and analyzed in a spectrophotometer (570 nm) ([15]). Bidistilled water was employed as a positive control and untreated erythrocytes as a negative control.

[7] = system: L. (L.) infantum promastigotes; test: Short-time incubation IC50 assay in promastigotes (MTT); type: cell-based, Leishmania (L.) infantum; conditions: Leishmania infantum, promastigotes 2 × 10^6/well, 4 h of treatment, read-out: IC50 (50% inhibitory concentration), short-time incubation
Protocol: All experiments were performed with L. (L.) infantum promastigotes in the late-grown phase using a Hanks-Balanced Salt Solution medium supplemented with D-glucose (10 mM), exceptions were described. To establish the ideal time and concentration to investigate the mechanism of action (MoA), a new IC50 assay was performed in promastigotes in short-time incubation. Parasites (2 × 10^6/well) were treated with compound 1 serially diluted (1.6 to 300 µM) for 1, 2, 3, and 4 h, at 24°C. Parasite viability was determined using the MTT colorimetric method ([16]). Untreated cells were employed as a negative control.

[8] = system: L. (L.) infantum promastigotes; test: Total proteins of the parasite; type: cell-based, Leishmania (L.) infantum; conditions: promastigotes after treatment

C=CCc1cc(OC)c(OCc2ccc(OC)cc2)c(Oc2ccc(CN3CCOCC3)cc2OC)c1 [compound 1, 4-(4-(5-allyl-3-methoxy-2-((4-methoxybenzyl)oxy)phenoxy)-3-methoxybenzyl)morpholine]
Proportion of parasites in different phases of the cell cycle (% ± SD): G0/G1 [1]: 46.6 ± 0.7 %
Proportion of parasites in different phases of the cell cycle (% ± SD): M/G2 [1]: 17.9 ± 0.5%
Proportion of parasites in different phases of the cell cycle (% ± SD): S [1]: 11.1 ± 1.3%
Proportion of parasites in different phases of the cell cycle (% ± SD): Sub G0 [1]: 7.5 ± 0.7 %
IL-10 levels ([2]; 10 and 60 µM, vs untreated control): reduction
IL-4 levels ([2]; only at 60 µM): significantly reduced levels
IL-12 levels ([2]; only at 60 µM): significantly reduced levels
INF-γ levels ([2]; only at 60 µM): significantly reduced levels
Stability/reference analyte concentration (%) ([3]; 0.08 µg/mL, processed sample, 2 h at room temperature): 98.35%
Stability/reference analyte concentration (%) ([3]; 0.08 µg/mL, processed sample, 24 h at 4°C): 99.12%
Stability/reference analyte concentration (%) ([3]; 0.08 µg/mL, unprocessed sample, 2 h at room temperature): 86.54%
Stability/reference analyte concentration (%) ([3]; 0.08 µg/mL, unprocessed sample, 6 h at 4°C): 91.74%
Stability/reference analyte concentration (%) ([3]; 0.08 µg/mL, unprocessed sample, 24 h at 4°C): 87.07%
Stability/reference analyte concentration (%) ([3]; 0.08 µg/mL, unprocessed sample, 15 days at −20°C): 85.36%
Stability/reference analyte concentration (%) ([3]; 0.08 µg/mL, unprocessed sample, 30 days at −20°C): 92.66%
Stability/reference analyte concentration (%) ([3]; 0.08 µg/mL, unprocessed sample, freezing/thawing): 88.58%
Stability/reference analyte concentration (%) ([3]; 5.00 µg/mL, processed sample, 2 h at room temperature): 100.43%
Stability/reference analyte concentration (%) ([3]; 5.00 µg/mL, processed sample, 24 h at 4°C): 98.84%
Stability/reference analyte concentration (%) ([3]; 5.00 µg/mL, unprocessed sample, 2 h at room temperature): 90.90%
Stability/reference analyte concentration (%) ([3]; 5.00 µg/mL, unprocessed sample, 6 h at 4°C): 95.92%
Stability/reference analyte concentration (%) ([3]; 5.00 µg/mL, unprocessed sample, 24 h at 4°C): 91.65%
Stability/reference analyte concentration (%) ([3]; 5.00 µg/mL, unprocessed sample, 15 days at −20°C): 90.53%
Stability/reference analyte concentration (%) ([3]; 5.00 µg/mL, unprocessed sample, 30 days at −20°C): 93.24%
Stability/reference analyte concentration (%) ([3]; 5.00 µg/mL, unprocessed sample, freezing/thawing): 97.49%
IC50 ([4]; intracellular amastigotes, 24 h incubation, read-out: IC50 against amastigotes of L. (L.) infantum): 9.7 µM
SI ([4]; selectivity index): > 20
ultrastructural alterations ([5]; 2 h): increased volume of the mitochondria
ultrastructural alterations ([5]; all studied times (2, 4, 6 h)): autophagic vacuoles were observed in the cytoplasm
ultrastructural alterations ([5]; later times of incubation (4 h, 6 h)): losses of mitochondrial cristae
hemolysis [6]: no hemolysis
IC50 [7]: 169 µM
total protein level [8]: increased level of total protein
